Laboratory results published in the NIST ThermoML archive (doi:10.1016/j.fluid.2015.07.030).

Assay: refractive index (other wavelength) (dimensionless); xn = mol fraction of the nth substance listed
Details: 95.99 kPa, Liquid, Standard Abbe refractometry

OCCOCCOCCO [triethylene glycol] + O
refractive index
Details	Wavelength=404.7 nm	Wavelength=435.8 nm	Wavelength=486.1 nm	Wavelength=546.1 nm	Wavelength=587.6 nm	Wavelength=589.3 nm	Wavelength=632.8 nm	Wavelength=644 nm	Wavelength=706.5 nm
293.15 K, x2 = 0	1.46928	1.46569	1.46151	1.45803	1.45619	1.45612	1.45455	1.4542	1.45248
293.15 K, x2 = 0.1056	1.46776	1.46418	1.46003	1.45656	1.45474	1.45467	1.45311	1.45275	1.45102
293.15 K, x2 = 0.2069	1.46585	1.46229	1.45817	1.45473	1.45293	1.45286	1.45131	1.45095	1.44922
293.15 K, x2 = 0.3104	1.46244	1.45892	1.45478	1.45137	1.44957	1.4495	1.44796	1.4476	1.44588
293.15 K, x2 = 0.4844	1.45861	1.45514	1.45102	1.44764	1.44586	1.4458	1.44426	1.44391	1.44221
293.15 K, x2 = 0.5016	1.45756	1.45412	1.45	1.44663	1.44485	1.44479	1.44326	1.44291	1.44121
293.15 K, x2 = 0.5952	1.45069	1.44731	1.44328	1.43997	1.4382	1.43814	1.43663	1.43669	1.4346
293.15 K, x2 = 0.6016	1.45072	1.44734	1.44332	1.44002	1.43827	1.43821	1.4367	1.43635	1.43464
293.15 K, x2 = 0.6788	1.44395	1.4406	1.4367	1.43344	1.43171	1.43165	1.4301	1.42981	1.42813
293.15 K, x2 = 0.7835	1.4342	1.43091	1.42716	1.42397	1.4223	1.42224	1.42078	1.42043	1.41874
293.15 K, x2 = 0.8184	1.42884	1.42558	1.42185	1.41872	1.41706	1.417	1.41555	1.4152	1.41353
293.15 K, x2 = 0.8473	1.42267	1.41949	1.41582	1.41276	1.41114	1.41108	1.40964	1.4093	1.40762
293.15 K, x2 = 0.8719	1.41529	1.41214	1.40852	1.40547	1.40386	1.4038	1.40238	1.40204	1.40038
293.15 K, x2 = 0.8926	1.40703	1.40391	1.40033	1.39734	1.39576	1.3957	1.3943	1.39396	1.39232
293.15 K, x2 = 0.9106	1.40148	1.39844	1.39495	1.392	1.39044	1.39038	1.38899	1.38865	1.387
293.15 K, x2 = 0.9254	1.39081	1.38783	1.38446	1.38156	1.38004	1.37998	1.3786	1.37827	1.37665
293.15 K, x2 = 0.9303	1.39206	1.38905	1.38562	1.38273	1.3812	1.38114	1.37976	1.37942	1.37778
293.15 K, x2 = 0.9391	1.38808	1.38514	1.38176	1.37891	1.37736	1.37731	1.37592	1.37559	1.37396
293.15 K, x2 = 0.951	1.38101	1.37811	1.37479	1.37198	1.37045	1.37039	1.36903	1.36871	1.36871
293.15 K, x2 = 0.9599	1.37477	1.37194	1.36866	1.36589	1.36436	1.36431	1.36296	1.36264	1.36106
293.15 K, x2 = 0.9708	1.36673	1.36396	1.36077	1.35803	1.35657	1.35652	1.3552	1.35488	1.35328
293.15 K, x2 = 0.979	1.36151	1.35879	1.35566	1.35294	1.35147	1.35142	1.35011	1.3498	1.34824
293.15 K, x2 = 0.9867	1.35527	1.35259	1.34949	1.34676	1.34532	1.34526	1.34398	1.34367	1.3421
293.15 K, x2 = 0.9936	1.34883	1.34624	1.34314	1.34052	1.33907	1.33902	1.33774	1.33744	1.33593
298.15 K, x2 = 0	1.46749	1.4639	1.45975	1.45629	1.45447	1.4544	1.45284	1.45249	1.45075
298.15 K, x2 = 0.1056	1.46604	1.46248	1.45834	1.45488	1.45307	1.453	1.45145	1.45109	1.44937
298.15 K, x2 = 0.2069	1.46428	1.46074	1.45661	1.45318	1.45138	1.45132	1.44978	1.44942	1.44768
298.15 K, x2 = 0.3104	1.46096	1.45745	1.45333	1.44993	1.44814	1.44807	1.44653	1.44617	1.44445
298.15 K, x2 = 0.4844	1.45699	1.45354	1.44943	1.44606	1.44428	1.44422	1.44269	1.44234	1.44065
298.15 K, x2 = 0.5016	1.45596	1.45252	1.44841	1.44506	1.44328	1.44322	1.44169	1.44134	1.43966
298.15 K, x2 = 0.5952	1.44911	1.44572	1.44171	1.43842	1.43668	1.43661	1.4351	1.43475	1.43307
298.15 K, x2 = 0.6016	1.44913	1.44575	1.44175	1.43845	1.43673	1.43666	1.43516	1.43481	1.4331
298.15 K, x2 = 0.6788	1.44244	1.43909	1.43522	1.43197	1.43025	1.43019	1.4287	1.42835	1.42668
298.15 K, x2 = 0.7835	1.43274	1.42946	1.42571	1.42254	1.42088	1.42082	1.41936	1.41901	1.41733
298.15 K, x2 = 0.8184	1.42742	1.42417	1.42045	1.41732	1.41568	1.41562	1.41417	1.41382	1.41213
298.15 K, x2 = 0.8473	1.42101	1.41783	1.41417	1.41108	1.40947	1.40941	1.40798	1.40763	1.40596
298.15 K, x2 = 0.8719	1.41326	1.41082	1.40723	1.40421	1.40261	1.40255	1.40113	1.40079	1.39912
298.15 K, x2 = 0.8926	1.40601	1.40293	1.3994	1.39645	1.39488	1.39482	1.39343	1.3931	1.39147
298.15 K, x2 = 0.9106	1.40032	1.39727	1.39379	1.39086	1.3893	1.38924	1.38785	1.38752	1.38588
298.15 K, x2 = 0.9254	1.38959	1.38664	1.3833	1.38042	1.37889	1.37884	1.37748	1.37714	1.37553
298.15 K, x2 = 0.9303	1.39111	1.38813	1.38472	1.38187	1.38035	1.38029	1.37892	1.37859	1.37697
298.15 K, x2 = 0.9391	1.38696	1.38402	1.38066	1.37781	1.37628	1.37622	1.37485	1.37452	1.3729
298.15 K, x2 = 0.951	1.38004	1.37716	1.37385	1.37104	1.36953	1.36947	1.36812	1.3678	1.3662
298.15 K, x2 = 0.9599	1.374	1.37117	1.36797	1.36514	1.36364	1.36359	1.36225	1.36139	1.36035
298.15 K, x2 = 0.9708	1.36592	1.36317	1.35998	1.35727	1.35581	1.35576	1.35444	1.35412	1.35254
298.15 K, x2 = 0.979	1.36072	1.35801	1.35488	1.35218	1.35072	1.35066	1.34937	1.34905	1.34751
298.15 K, x2 = 0.9867	1.35466	1.35198	1.34888	1.34617	1.34473	1.34467	1.3434	1.34308	1.34153
298.15 K, x2 = 0.9936	1.34824	1.34565	1.34258	1.33995	1.33852	1.33847	1.3372	1.3369	1.3354
303.15 K, x2 = 0	1.4657	1.46213	1.45796	1.45455	1.45273	–	–	–	–
303.15 K, x2 = 0.1056	1.4643	1.46075	1.4566	1.45317	1.45138	–	–	–	–
303.15 K, x2 = 0.2069	1.46262	1.4591	1.45496	1.45155	1.44975	–	–	–	–
303.15 K, x2 = 0.3104	1.45889	1.45541	1.45129	1.4479	1.44612	–	–	–	–
303.15 K, x2 = 0.4844	1.45533	1.4519	1.4478	1.44445	1.44268	–	–	–	–
303.15 K, x2 = 0.5016	1.45432	1.4509	1.44681	1.44347	1.4417	–	–	–	–
303.15 K, x2 = 0.5952	1.44749	1.44412	1.44014	1.43687	1.43513	–	–	–	–
303.15 K, x2 = 0.6016	1.44759	1.44421	1.44025	1.43697	1.43525	–	–	–	–
303.15 K, x2 = 0.6788	1.44091	1.43757	1.4337	1.43047	1.42877	–	–	–	–
303.15 K, x2 = 0.7835	1.4314	1.4281	1.42435	1.42118	1.41951	–	–	–	–
303.15 K, x2 = 0.8184	1.42604	1.4228	1.4191	1.41598	1.41434	–	–	–	–
303.15 K, x2 = 0.8473	1.41954	1.41636	1.41271	1.40964	–	–	–	–	–
303.15 K, x2 = 0.8719	1.41258	1.40944	1.40585	1.40283	–	–	–	–	–
303.15 K, x2 = 0.8926	1.4048	1.40173	1.39821	1.39527	–	–	–	–	–
303.15 K, x2 = 0.9106	1.39915	1.39612	1.39265	1.38973	–	–	–	–	–
303.15 K, x2 = 0.9254	1.38867	1.38572	1.38237	1.37951	–	–	–	–	–
303.15 K, x2 = 0.9303	1.38901	1.38707	1.38371	1.38085	–	–	–	–	–
303.15 K, x2 = 0.9391	1.38606	1.38312	1.37974	1.37691	–	–	–	–	–
303.15 K, x2 = 0.951	1.37929	1.37641	1.37311	1.3703	–	–	–	–	–
303.15 K, x2 = 0.9599	1.37327	1.37045	1.36721	1.36443	–	–	–	–	–
303.15 K, x2 = 0.9708	1.3651	1.36235	1.3592	1.35648	–	–	–	–	–
303.15 K, x2 = 0.979	1.36001	1.3573	1.35419	1.3515	–	–	–	–	–
303.15 K, x2 = 0.9867	1.3539	1.35126	1.34816	1.3455	–	–	–	–	–
303.15 K, x2 = 0.9936	1.3476	1.34502	1.34197	1.33934	–	–	–	–	–
